Experiments:
IDH1 R132H = IDH1 R132H (Homo sapiens (Human), UniProt O75874, R132H); experiment: Assays for IDH1 R132H Inhibitors (NADPH/aKG, resazurin detection); format: biochemical; settings: IDH1 R132H enzyme, Table 3; read-out: R132H IC50
Procedure, shortened: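 Substrate mix held 8 uM NADPH plus 2 mM aKG; buffer was 20 mM Tris pH 7.5 with 150 mM NaCl, 10 mM MgCl2, 0.03% BSA. After 50 min room-temperature reaction, NADPH remaining was detected with 30 μM resazurin mix over 5 min.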

HT1080 cells = experiment: Cellular assay for IDH1m inhibitors: inhibition of 2-HG production in HT1080 cells (LC-MS); format: cell-based; settings: Homo sapiens, HT-1080, 48 hours
Method: Cells (e.g., HT1080 or U87MG) are grown in T125 flasks in DMEM containing 10% FBS, 1× penicillin/streptomycin and 500 ug/mL G418. They are harvested by trypsin and seeded into 96 well white bottom plates at a density of 5000 cell/well in 100 ul/well in DMEM with 10% FBS. No cells are plates in columns 1 and 12. Cells are incubated overnight at 37 C in 5% CO2. The next day compounds are made up at 2× concentration and 100 ul are added to each cell well. The final concentration of DMSO is 0.2% and the DMSO control wells are plated in row G. The plates are then placed in the incubator for 48 hours. At 48 hours, 100 ul of media is removed from each well and analyzed by LC-MS for 2-HG concentrations. The cell plate is placed back in the incubator for another 24 hours. At 72 hours post compound addition, 10 mL/plate of Promega Cell Titer Glo reagent is thawed and mixed. The cell plate is removed from the incubator and allowed to equilibrate to room temperature. Then 100 ul of reagent is added to each well of media. The cell plate is then placed on an orbital shaker for 10 minutes and then allowed to sit at room temperature for 20 minutes. The plate is then read for luminescence with an integration time of 500 ms.

Sequence of IDH1 R132H (O75874 whole entry R132H): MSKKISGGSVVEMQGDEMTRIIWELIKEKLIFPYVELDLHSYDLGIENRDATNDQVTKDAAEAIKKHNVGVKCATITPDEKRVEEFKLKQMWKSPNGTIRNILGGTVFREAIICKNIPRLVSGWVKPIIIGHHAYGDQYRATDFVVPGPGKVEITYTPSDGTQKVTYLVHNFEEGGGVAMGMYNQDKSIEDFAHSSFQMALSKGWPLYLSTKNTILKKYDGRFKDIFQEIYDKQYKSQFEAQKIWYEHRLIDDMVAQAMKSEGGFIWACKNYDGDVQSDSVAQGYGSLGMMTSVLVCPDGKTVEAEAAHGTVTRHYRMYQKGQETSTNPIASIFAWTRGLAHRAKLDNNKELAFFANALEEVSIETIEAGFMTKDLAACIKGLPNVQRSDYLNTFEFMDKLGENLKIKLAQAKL

IC50 (IDH1 R132H) [nM]	IC50 (HT1080 cells) [nM]	Structure (SMILES)
500 to 1000		CC(C)[C@@H]1CN(c2nc(C3CC3)c3c(c2C#N)CC(C)(C)OC3)CCN1C(=O)C[S+](C)[O-] (stereo partly drawn) [Compound 453, 8-Cyclopropyl-6-((3R)-3-isopropyl-4-(2-(methylsulfinyl)acetyl)piperazin-1-yl)-3,3-dimethyl-3,4-dihydro-1H-pyrano[3,4-c]pyridine-5-carbonitrile]
< 500		CCOCCC(=O)N1CCN(c2nc(C3CC3)c3c(c2C#N)CC(C)(C)OC3)C[C@H]1C(C)C [Compound 459, (R)-8-cyclopropyl-6-(4-(3-ethoxypropanoyl)-3-isopropylpiperazin-1-yl)-3,3-dimethyl-3,4-dihydro-1H-pyrano[3,4-c]pyridine-5-carbonitrile]
500 to 1000		CC1(C)Cc2c(C#N)c(N3CCN(C(=O)CC(F)(F)F)C(CC(F)(F)F)C3)nc(C3CC3)c2CO1 (stereo not drawn) [Compound 470, 8-cyclopropyl-3,3-dimethyl-6-(3-(2,2,2-trifluoroethyl)-4-(3,3,3-trifluoropropanoyl)piperazin-1-yl)-3,4-dihydro-1H-pyrano[3,4-c]pyridine-5-carbonitrile]
< 500		COC(=O)OC[C@@H]1C[C@H]1C(=O)N1CCN(c2nc(C3CC3)c3c(c2C#N)CC(C)(C)OC3)C[C@H]1C(C)C [Compound 472, ((1R,2R)-2-((R)-4-(5-cyano-8-cyclopropyl-3,3-dimethyl-3,4-dihydro-1H-pyrano[3,4-c]pyridin-6-yl)-2-isopropylpiperazine-1-carbonyl)cyclopropyl)methyl methyl carbonate]
< 500		COCCC(=O)N1CCN(c2nc(C3CC3)c3c(c2C#N)CCN(C(C)=O)C3)C[C@H]1C1CC1 [Compound 478, (R)-7-acetyl-1-cyclopropyl-3-(3-cyclopropyl-4-(3-methoxypropanoyl)piperazin-1-yl)-5,6,7,8-tetrahydro-2,7-naphthyridine-4-carbonitrile]
500 to 1000		CC(=O)N1CCc2c(C#N)c(N3CCN(C(=O)C4CC4)[C@H](C4CC4)C3)nc(C3CC3)c2C1 [Compound 480, (R)-7-acetyl-3-(4-(cyclopropanecarbonyl)-3-cyclopropylpiperazin-1-yl)-1-cyclopropyl-5,6,7,8-tetrahydro-2,7-naphthyridine-4-carbonitrile]
< 500	< 500	C#CC(=O)N1CCc2c(C#N)c(N3CCN(C(=O)C4CC4)[C@H](C4CC4)C3)nc(C3CC3)c2C1 [Compound 491, (R)-3-(4-(cyclopropanecarbonyl)-3-cyclopropylpiperazin-1-yl)-1-cyclopropyl-7-propioloyl-5,6,7,8-tetrahydro-2,7-naphthyridine-4-carbonitrile]
500 to 1000	1000 to 10000	C=C(F)C(=O)N1CCc2c(C3CC3)nc(N3CCN(C(=O)CCOC)[C@H](C4CC4)C3)c(C#N)c2C1 [Compound 492]
500 to 1000	1000 to 10000	N#CCC(=O)N1CCc2c(C#N)c(N3CCN(C(=O)C4CC4)[C@H](C4CC4)C3)nc(C3CC3)c2C1 [Compound 497, (R)-7-(2-cyanoacetyl)-3-(4-(cyclopropanecarbonyl)-3-cyclopropylpiperazin-1-yl)-1-cyclopropyl-5,6,7,8-tetrahydro-2,7-naphthyridine-4-carbonitrile]
500 to 1000		COCCC(=O)N1CCN(c2nc(C3CC3)c3c(c2C#N)CCN(C(=O)CCO)C3)C[C@H]1C1CC1 [Compound 501, (R)-1-cyclopropyl-3-(3-cyclopropyl-4-(3-methoxypropanoyl)piperazin-1-yl)-′7-(3-hydroxypropanoyl)-5,6,7,8-tetrahydro-2,7-naphthyridine-4-carbonitrile]

Continued, compound first:

Structure (SMILES)	IC50 (IDH1 R132H) [nM]	IC50 (HT1080 cells) [nM]
COC(=O)C(C)CCC(=O)N1CCN(c2nc(C3CC3)c3c(c2C#N)CC(C)(C)OC3)C[C@H]1C(C)C (stereo partly drawn) [Compound 439, Methyl 5-((R)-4-(5-cyano-8-cyclopropyl-3,3-dimethyl-3,4-dihydro-1H-pyrano[3,4-c]pyridin-6-yl)-2-isopropylpiperazin-1-yl)-2-methyl-5-oxopentanoate]	500 to 1000	
CC(C)[C@@H]1CN(c2nc(C3CC3)c3c(c2C#N)CC(C)(C)OC3)CCN1C(=O)CS(C)(=O)=O [Compound 446, (R)-8-cyclopropyl-6-(3-isopropyl-4-(2-(methylsulfonyl)acetyl)piperazin-1-yl)-3,3-dimethyl-3,4-dihydro-1H-pyrano[3,4-c]pyridine-5-carbonitrile]	500 to 1000	
CC(C)[C@@H]1CN(c2nc(C3CC3)c3c(c2C#N)CC(C)(C)OC3)CCN1C(=O)CCc1ccco1 [Compound 447, (R)-8-cyclopropyl-6-(4-(3-(furan-2-yl)propanoyl)-3-isopropylpiperazin-1-yl)-3,3-dimethyl-3,4-dihydro-1H-pyrano[3,4-c]pyridine-5-carbonitrile]	500 to 1000	
CC(C)[C@@H]1CN(c2nc(C3CC3)c3c(c2C#N)CC(C)(C)OC3)CCN1C(=O)CCc1nnco1 [Compound 448, (R)-6-(4-(3-(1,3,4-oxadiazol-2-yl)propanoyl)-3-isopropylpiperazin-1-yl)-8-cyclopropyl-3,3-dimethyl-3,4-dihydro-1H-pyrano[3,4-c]pyridine-5-carbonitrile]	500 to 1000	
COCCC(=O)N1CCN(c2nc(C3CC3)c3c(c2C#N)CC(C)(C)OC3)CC1C(F)F (stereo not drawn) [Compound 464]	500 to 1000	
CC1(C)Cc2c(C#N)c(N3CCN(C(=O)CC4COC4)[C@H](C4CC4)C3)nc(C3CC3)c2CO1 [Compound 466, (R)-8-cyclopropyl-6-(3-cyclopropyl-4-(2-(oxetan-3-yl)acetyl)piperazin-1-yl)-3,3-dimethyl-3,4-dihydro-1H-pyrano[3,4-c]pyridine-5-carbonitrile]	500 to 1000	
CCCCNC(=O)C(=O)CCC(=O)N1CCN(c2nc(C3CC3)c3c(c2C#N)CC(C)(C)OC3)C[C@H]1C(C)C [Compound 467, (R)—N-butyl-5-(4-(5-cyano-8-cyclopropyl-3,3-dimethyl-3,4-dihydro-1H-pyrano[3,4-c]pyridin-6-yl)-2-isopropylpiperazin-1-yl)-2,5-dioxopentanamide]	500 to 1000	
CCOC(=O)[C@@H]1CN(c2nc(C3CC3)c3c(c2C#N)CC(C)(C)OC3)CCN1C(C)=O [Compound 468, (S)-ethyl 1-acetyl-4-(5-cyano-8-cyclopropyl-3,3-dimethyl-3,4-dihydro-1H-pyrano[3,4-c]pyridin-6-yl)piperazine-2-carboxylate]	500 to 1000	
CC1(C)Cc2c(C#N)c(N3CCN(C(=O)C4CC4)C(CC(F)(F)F)C3)nc(C3CC3)c2CO1 (stereo not drawn) [Compound 471, 6-(4-(cyclopropanecarbonyl)-3-(2,2,2-trifluoroethyl)piperazin-1-yl)-8-cyclopropyl-3,3-dimethyl-3,4-dihydro-1H-pyrano[3,4-c]pyridine-5-carbonitrile]	500 to 1000	
CC1CN(c2nc(C3CC3)c3c(c2C#N)CC(C)(C)OC3)CC(F)CN1C(=O)C1CC1 (stereo not drawn) [Compound 474, 6-(4-(cyclopropanecarbonyl)-6-fluoro-3-methyl-1,4-diazepan-1-yl)-8-cyclopropyl-3,3-dimethyl-3,4-dihydro-1H-pyrano[3,4-c]pyridine-5-carbonitrile]	500 to 1000	
CC1CCN(c2nc(C3CC3)c3c(c2C#N)CC(C)(C)OC3)CCN1C(=O)C1CC1 (stereo not drawn) [Compound 475, 6-(4-(cyclopropanecarbonyl)-5-methyl-1,4-diazepan-1-yl)-8-cyclopropyl-3,3-dimethyl-3,4-dihydro-1H-pyrano[3,4-c]pyridine-5-carbonitrile]	500 to 1000	
COCCC(=O)N1CCN(c2nc(C3CC3)c3c(c2C#N)CCN(CCO)C3)C[C@H]1C1CC1 [Compound 484, (R)-1-cyclopropyl-3-(3-cyclopropyl-4-(3-methoxypropanoyl)piperazin-1-yl)-7-(2-hydroxyethyl)-5,6,7,8-tetrahydro-2,7-naphthyridine-4-carbonitrile]	500 to 1000	
C=CC(=O)N1CCc2c(C#N)c(N3CCN(C(=O)C4CC4)[C@H](C4CC4)C3)nc(C3CC3)c2C1 [Compound 489, (R)-7-acryloyl-3-(4-(cyclopropanecarbonyl)-3-cyclopropylpiperazin-1-yl)-1-cyclopropyl-5,6,7,8-tetrahydro-2,7-naphthyridine-4-carbonitrile]	< 500	500 to 1000
C=CC(=O)N1CCc2c(C#N)c(N3CCN(C(=O)CC(F)(F)F)[C@H](C4CC4)C3)nc(C3CC3)c2C1 [Compound 490, (R)-7-acryloyl-1-cyclopropyl-3-(3-cyclopropyl-4-(3,3,3-trifluoropropanoyl)piperazin-1-yl)-5,6,7,8-tetrahydro-2,7-naphthyridine-4-carbonitrile]	< 500	500 to 1000
C#CC(=O)N1CCc2c(C#N)c(-c3ccc(C(=O)OC)cc3F)nc(C3CC3)c2C1 [Compound 495]	500 to 1000	< 500
C/C=C/C(=O)N1CCc2c(C#N)c(N3CCN(C(=O)C4CC4)[C@H](C4CC4)C3)nc(C3CC3)c2C1 [Compound 499, (R,E)-7-but-2-enoyl-3-(4-(cyclopropanecarbonyl)-3-cyclopropylpiperazin-1-yl)-1-cyclopropyl-5,6,7,8-tetrahydro-2,7-naphthyridine-4-carbonitrile]	500 to 1000	
C=CS(=O)(=O)N1CCc2c(C#N)c(N3CCN(C)CC3)nc(C3CC3)c2C1 [Compound 503]	500 to 1000	
